The subject of assay [1] is CB2. The assay can be described thus: Immunohistochemical analysis of CB2 expression in organs of Farber disease mice. Format: in vivo, mouse. To be noted: 5 mg/kg i.p. 3x a week for 6 weeks, 8.5-week-old, vs untreated Farber mice. How it is done:
Ten 2.5-week-old Farber disease mice were treated once weekly with recombinant acid ceramidase by intraperitoneal injection at a dose of 10 mg/kg. After 6 injections the 8.5-week-old mice were euthanized and their organs collected and processed for immunohistochemical analysis of CB2 expression. […] Thus, CB2 can be used as a biomarker to monitor the efficacy of treatment for Farber disease and other lysosomal storage disorders.
Ten 2.5-week-old Farber disease mice were treated 3x a week by intraperitoneal injection of JWH133 at a dose of 5 mg/kg. After 6 weeks the 8.5-week-old mice were euthanized and their organs collected and processed for immunohistochemical analysis of CB2 expression. […] Thus, CB2 agonists, such as JWH133, can be used to treat Farber disease and other lysosomal storage disorders.

The test system of assay [2] is MCP-1. The assay can be described thus: MCP-1 expression in liver and plasma of Farber disease mice. Format: in vivo, mouse. The settings on record: 5 mg/kg i.p. 3x a week for 6 weeks, vs untreated Farber mice. How it is done:
Ten 2.5-week-old Farber disease mice were treated 3x a week by intraperitoneal injection of JWH133 at a dose of 5 mg/kg. After 6 weeks the 8.5-week-old mice were euthanized and their organs and plasma collected and processed for immunohistochemical analysis of MCP-1 expression. […] Thus, CB2 agonists, such as JWH133, can be used to treat Farber disease and other lysosomal storage disorders (* = p<0.01).

The test system of assay [3] is MCP-1. The assay can be described thus: MCP-1 released into culture media by skin fibroblasts from a patient with MPS IIIA (ELISA). Type of assay: cell-based, human. The settings on record: 3.2 micromoles/ml, 72 or 96 hr, vs cultures without drug, p < 0.01. How it is done: Skin fibroblasts from a patient with MPS IIIA were grown to ~70% confluency and the CB2 agonists JHW133 and PM226 were added to the culture media for 72 or 96 hr at a dose of 3.2 micromoles/ml (black and gray bars, respectively). Control: cultures without drug added (white bars). […] Bar heights indicate the mean values from three independent experiments. Vertical lines indicate the standard error of the mean. * = p < 0.01 comparing with and without drug.
(In an ELISA, binding on a coated surface is turned into a signal by an enzyme label.)

Assay [4] concerns Farber mice. Nature of the assay: Survival and body weight of Farber mice treated with CB2 agonist.
Experimental: Two Farber mouse groups were studied (n=12 mice per group). […] In the control group they were injected with DMSO alone. Weight was monitored daily.
Assay [5] deals with mouse model of Sanfilippo disease (mucopolysaccharidosis IIIA). The settings on record: cited from earlier work.
The test system of assay [6] is mouse model of Niemann-Pick diseases type C1 (NPC1). The settings on record: cited from earlier work.

“Also recorded” adds a separate entry of the source.

`CCCC(C)(C)c1ccc2c(c1)OC(C)(C)[C@@H]1CC=C(C)C[C@@H]21` [JWH133]: in assay [1], the “CB2 expression (immunohistochemistry)” value was “significantly reduced”. Besides, in assay [2], the “MCP-1 expression in the liver” value is recorded as “significantly reduced”. Further, the “MCP-1 expression in plasma” value in assay [2] (p<0.01) is “significantly reduced”. Moreover, the “levels of MCP-1 released into the culture media” value in assay [3] is “able to reduce the levels of MCP-1 released into the culture media”. Moreover, the “day of natural death in the treatment group” value in assay [4] (Farber mice, 5 mg/kg i.p. three times a week from 2 weeks of age) was 47 days. The “survival / life span” value in assay [4] (Farber mice, 5 mg/kg i.p. three times a week in DMSO from 2 weeks of age, vs vehicle control (all dead by day 44)) was “survived longer than vehicle control treated mice”. The body weight entry in assay [4] (Farber mice, 5 mg/kg i.p. three times a week, throughout the study, vs vehicle alone, 5 mg/kg) is “significantly greater; also recorded: significant prevention of weight loss”. In addition, in assay [4] (of 12 Farber mice, 5 mg/kg i.p. three times a week, remaining 11 euthanized at day 58), the “number of mice that died naturally in the treatment group” value was 1.
Regarding `CCCCCCC(C)(C)c1cc(OC)c2c(c1)OC(C)(C)c1cnoc1-2` [PM226], the “levels of MCP-1 released into the culture media” value in assay [3] is on record as “able to reduce the levels of MCP-1 released into the culture media”.
Regarding `CC(=O)Oc1ccccc1C(=O)O` [aspirin], the “expression of inflammation-related genes” value in assay [5] (chronic treatment for 6 months with high doses) was “normalize expression of some inflammation-related genes”. Further, the treatment efficacy result in assay [6] is “failed to show treatment efficacy”.
Consider `CC(C)Cc1ccc(C(C)C(=O)O)cc1` (centres unmarked) [ibuprofen], for which, in assay [6] (high doses), the lifespan result was “prolong the lifespan of the mice by about two weeks” and the “onset of clinical signs” value is “modestly slow the onset of clinical signs”.
With pentosan polysulfate [PPS], in assay [5] (mouse model of MPS IIIA, attributed to systemic effects), the CNS pathology entry is reported as “some improvements in CNS pathology were noted”.
